Measured values: US20210115040A1, “OGA INHIBITOR COMPOUNDS” (Janssen Pharmaceutica NV, priority 2018, published 2021)

Target: T1, OGA (Mus musculus, UniProt Q9EQQ9)
T1 construct: from tissue; host or cells: mouse brain (sagittal sections, forebrain area)
T1 sequence (Q9EQQ9 1-916): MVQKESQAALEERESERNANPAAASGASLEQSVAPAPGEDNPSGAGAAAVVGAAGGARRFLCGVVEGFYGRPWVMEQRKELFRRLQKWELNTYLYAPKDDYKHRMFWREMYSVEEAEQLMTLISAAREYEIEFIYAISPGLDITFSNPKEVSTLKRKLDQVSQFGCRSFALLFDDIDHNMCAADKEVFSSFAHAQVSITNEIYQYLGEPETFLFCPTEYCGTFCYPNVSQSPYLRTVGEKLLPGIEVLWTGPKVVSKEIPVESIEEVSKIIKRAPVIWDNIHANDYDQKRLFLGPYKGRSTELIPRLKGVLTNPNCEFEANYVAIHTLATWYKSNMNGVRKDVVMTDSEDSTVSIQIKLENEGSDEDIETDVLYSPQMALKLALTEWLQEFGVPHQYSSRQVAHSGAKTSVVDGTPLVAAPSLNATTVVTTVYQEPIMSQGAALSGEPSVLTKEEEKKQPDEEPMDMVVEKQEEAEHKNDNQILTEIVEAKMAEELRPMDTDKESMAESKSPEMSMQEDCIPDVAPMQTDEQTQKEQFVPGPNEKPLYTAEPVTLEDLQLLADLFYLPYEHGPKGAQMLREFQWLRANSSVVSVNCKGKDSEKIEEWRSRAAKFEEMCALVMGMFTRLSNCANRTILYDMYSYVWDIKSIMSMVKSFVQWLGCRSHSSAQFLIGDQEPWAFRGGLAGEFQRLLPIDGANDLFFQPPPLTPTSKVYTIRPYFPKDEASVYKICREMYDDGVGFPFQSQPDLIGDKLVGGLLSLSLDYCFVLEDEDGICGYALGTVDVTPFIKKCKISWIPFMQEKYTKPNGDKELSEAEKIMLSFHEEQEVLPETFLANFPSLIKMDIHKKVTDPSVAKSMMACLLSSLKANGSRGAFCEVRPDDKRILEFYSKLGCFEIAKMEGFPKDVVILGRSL
Assay: Ex vivo OGA occupancy assay using [3H]-ligand (brain sections, autoradiography)
Type: in vivo
Settings: po, Male NMRI or C57Bl6j mice, p.o., 24 h after administration, forebrain area, normalised to vehicle, read-out: Occupancy (% +/- sd)
Procedure: Male NMRI or C57Bl6j mice were treated by oral (p.o.) administration of vehicle or compound. Animals were sacrificed 24 hours after administration. Brains were immediately removed from the skull, hemispheres were separated and the right hemisphere, for ex vivo OGA occupancy assay, was rapidly frozen in dry-ice cooled 2-methylbutane (−40° C.). Twenty […]m-thick sagittal sections were cut using a Leica CM 3050 cryostat-microtome (Leica, Belgium), thaw-mounted on microscope slides (SuperFrost Plus Slides, Thermo Fisher Scientific) and stored at −20° C. until use. After thawing, sections were dried under a cold stream of air. The sections were not washed prior to incubation. The 10 minutes incubation with 3 nM [^3H]-ligand was rigorously controlled. All brain sections (from compound-treated and vehicle-treated animals) were incubated in parallel. After incubation, the excess of [^3H]-ligand was washed off in ice-cold buffer (PBS 1× and 1% BSA) 2 times 10 minutes, followed by a quick dip in distilled water. The sections were then dried under a stream of cold air.
Radioactivity in the forebrain area of brain slices was measured using a β-imager with M3 vision analysis software (Biospace Lab, Paris). Specific binding was calculated as the difference between total binding and non-specific binding measured in Thiamet-G (10 μM) treated sections. […]

Cc1cc(C2CCCN(C(C)c3ccc4sc(C)nc4n3)C2)cc(C)n1 (racemic) [Compound 39]
receptor occupancy at 25 mg/kg: 3.33%
